Literature values in patent US10703773B2, “Glycosyl hesperetin and process for producing the same and uses thereof” (Hayashibara Co. Ltd., priority 2014, dated 2020).

Conditions: in water at ambient temperature

In the case of `COc1ccc([C@@H]2CC(=O)c3c(O)cc(O[C@@H]4O[C@H](CO[C@@H]5O[C@@H](C)[C@H](O)[C@@H](O)[C@H]5O)[C@@H](O)[C@H](O)[C@H]4O)cc3O2)cc1O` [hesperidin], the Water solubility is given as “about 0.002 w/v %”.
